Experiments:
Settings in all cases: 10 μM CV-8814
[1] = target: Peptidase, Angiotensin Converting Enzyme (Oryctolagus cuniculus, UniProt P12822); assay type: biochemical, rabbit
[2] = target: Protein Tyrosine Kinase, Insulin Receptor (Homo sapiens, UniProt P06213); assay type: biochemical
[3] = target: Protein Tyrosine Kinase, LCK (Homo sapiens, UniProt P06239); assay type: biochemical
[4] = target: Adrenergic α1A (Rattus norvegicus, UniProt P43140); assay type: binding
[5] = target: Adrenergic α1B (Rattus norvegicus, UniProt P15823); assay type: binding
Chain of Adrenergic α1B (P15823 whole entry): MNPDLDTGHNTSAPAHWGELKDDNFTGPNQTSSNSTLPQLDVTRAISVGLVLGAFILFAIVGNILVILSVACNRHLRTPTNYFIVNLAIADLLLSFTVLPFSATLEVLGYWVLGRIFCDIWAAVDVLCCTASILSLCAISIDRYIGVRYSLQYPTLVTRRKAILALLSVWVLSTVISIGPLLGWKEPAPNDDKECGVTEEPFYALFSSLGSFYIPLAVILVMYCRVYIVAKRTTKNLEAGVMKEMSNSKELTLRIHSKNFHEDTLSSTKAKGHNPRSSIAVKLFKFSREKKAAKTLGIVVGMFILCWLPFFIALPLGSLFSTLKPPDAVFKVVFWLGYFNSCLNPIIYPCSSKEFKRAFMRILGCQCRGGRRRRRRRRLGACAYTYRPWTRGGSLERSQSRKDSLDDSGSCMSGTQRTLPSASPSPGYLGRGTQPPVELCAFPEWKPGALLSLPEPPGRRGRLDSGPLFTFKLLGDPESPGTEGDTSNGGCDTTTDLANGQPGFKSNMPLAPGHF

[6] = target: Androgen (Testosterone) (Homo sapiens, UniProt P10275); assay type: binding
[7] = target: Calcium Channel N-Type (Rattus norvegicus, UniProt Q02294); assay type: binding
Chain of Calcium Channel N-Type (Q02294 whole entry): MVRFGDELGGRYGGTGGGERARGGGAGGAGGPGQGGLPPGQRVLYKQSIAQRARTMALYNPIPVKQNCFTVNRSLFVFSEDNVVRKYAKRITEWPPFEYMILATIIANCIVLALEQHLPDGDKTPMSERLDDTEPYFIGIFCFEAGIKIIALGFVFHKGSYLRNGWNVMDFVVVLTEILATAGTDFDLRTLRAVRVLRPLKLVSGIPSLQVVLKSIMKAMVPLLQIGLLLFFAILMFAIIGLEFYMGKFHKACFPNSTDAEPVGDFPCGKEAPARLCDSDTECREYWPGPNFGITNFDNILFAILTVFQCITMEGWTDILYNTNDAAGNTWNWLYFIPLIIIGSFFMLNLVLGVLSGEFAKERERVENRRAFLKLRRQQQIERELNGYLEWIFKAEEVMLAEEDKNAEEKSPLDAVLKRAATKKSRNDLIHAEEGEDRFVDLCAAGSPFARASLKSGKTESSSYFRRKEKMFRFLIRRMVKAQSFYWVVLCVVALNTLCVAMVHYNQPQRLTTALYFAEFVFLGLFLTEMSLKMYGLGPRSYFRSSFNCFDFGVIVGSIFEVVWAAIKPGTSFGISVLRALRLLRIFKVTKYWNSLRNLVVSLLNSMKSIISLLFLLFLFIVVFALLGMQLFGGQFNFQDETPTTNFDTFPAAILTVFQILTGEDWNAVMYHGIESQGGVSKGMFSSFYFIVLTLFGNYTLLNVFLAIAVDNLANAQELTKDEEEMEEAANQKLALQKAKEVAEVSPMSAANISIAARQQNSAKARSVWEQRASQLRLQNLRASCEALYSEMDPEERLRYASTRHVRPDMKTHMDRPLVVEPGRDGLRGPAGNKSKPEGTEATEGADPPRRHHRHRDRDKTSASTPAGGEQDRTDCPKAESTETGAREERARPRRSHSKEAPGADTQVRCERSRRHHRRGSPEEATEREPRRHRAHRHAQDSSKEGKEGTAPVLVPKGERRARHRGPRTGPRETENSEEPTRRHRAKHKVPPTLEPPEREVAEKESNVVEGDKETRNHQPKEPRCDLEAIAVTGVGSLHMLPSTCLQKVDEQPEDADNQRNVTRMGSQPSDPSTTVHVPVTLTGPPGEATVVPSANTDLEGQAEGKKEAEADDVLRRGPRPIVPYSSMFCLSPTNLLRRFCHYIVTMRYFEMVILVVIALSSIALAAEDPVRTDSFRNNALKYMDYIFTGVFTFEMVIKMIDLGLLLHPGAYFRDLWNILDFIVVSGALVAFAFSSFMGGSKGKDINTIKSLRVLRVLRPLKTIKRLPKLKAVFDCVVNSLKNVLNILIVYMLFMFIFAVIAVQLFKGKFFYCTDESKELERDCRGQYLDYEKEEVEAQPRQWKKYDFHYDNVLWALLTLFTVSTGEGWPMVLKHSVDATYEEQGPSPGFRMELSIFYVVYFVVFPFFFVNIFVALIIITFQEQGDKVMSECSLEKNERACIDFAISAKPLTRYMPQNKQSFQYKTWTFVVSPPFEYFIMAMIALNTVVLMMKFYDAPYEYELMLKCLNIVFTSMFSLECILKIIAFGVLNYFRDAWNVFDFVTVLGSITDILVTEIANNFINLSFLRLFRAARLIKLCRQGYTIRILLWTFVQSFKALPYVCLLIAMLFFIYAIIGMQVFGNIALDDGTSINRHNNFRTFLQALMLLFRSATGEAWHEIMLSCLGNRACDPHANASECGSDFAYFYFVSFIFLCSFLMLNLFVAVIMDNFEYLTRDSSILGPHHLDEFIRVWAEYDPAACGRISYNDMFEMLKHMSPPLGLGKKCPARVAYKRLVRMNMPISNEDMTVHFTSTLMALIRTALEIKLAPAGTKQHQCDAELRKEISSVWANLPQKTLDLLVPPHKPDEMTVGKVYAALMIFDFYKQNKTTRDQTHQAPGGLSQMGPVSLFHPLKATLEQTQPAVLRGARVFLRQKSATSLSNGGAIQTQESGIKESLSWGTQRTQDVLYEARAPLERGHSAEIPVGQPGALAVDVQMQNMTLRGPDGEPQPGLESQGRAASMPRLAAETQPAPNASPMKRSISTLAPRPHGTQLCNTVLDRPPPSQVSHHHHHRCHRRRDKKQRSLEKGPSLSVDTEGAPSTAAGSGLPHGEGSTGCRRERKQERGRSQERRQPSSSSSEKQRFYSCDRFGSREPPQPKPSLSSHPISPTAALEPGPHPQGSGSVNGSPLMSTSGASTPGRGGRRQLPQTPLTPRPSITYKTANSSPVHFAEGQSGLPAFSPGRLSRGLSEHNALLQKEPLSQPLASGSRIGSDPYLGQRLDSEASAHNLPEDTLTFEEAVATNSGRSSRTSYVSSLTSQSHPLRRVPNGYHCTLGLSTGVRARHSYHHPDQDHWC

[8] = target: Cholecystokinin CCK2 (CCKB) (Homo sapiens, UniProt P32239); assay type: binding
[9] = target: Dopamine D1 (Homo sapiens, UniProt P21728); assay type: binding
[10] = target: Endothelin ETA (Homo sapiens, UniProt P25101); assay type: binding
[11] = target: GABAB1A (Homo sapiens, UniProt Q9UBS5); assay type: binding
[12] = target: Glucocorticoid (Homo sapiens, UniProt P04150); assay type: binding
[13] = target: Glutamate, NMDA, Glycine (Rattus norvegicus, UniProt P35439); assay type: binding
[14] = target: Histamine H1 (Homo sapiens, UniProt P35367); assay type: binding
[15] = target: Melanocortin MC1 (Homo sapiens, UniProt Q01726); assay type: binding
[16] = target: Muscarinic M3 (Homo sapiens, UniProt P20309); assay type: binding
[17] = target: PPARγ (Homo sapiens, UniProt P37231); assay type: binding
[18] = target: Progesterone PR-B (Homo sapiens, UniProt P06401); assay type: binding
[19] = target: Serotonin (5-Hydroxytryptamine) 5-HT1B (Homo sapiens, UniProt P28222); assay type: binding
[20] = target: Serotonin (5-Hydroxytryptamine) 5-HT2A (Homo sapiens, UniProt P28223); assay type: binding
Chain of Serotonin (5-Hydroxytryptamine) 5-HT2A (P28223 whole entry): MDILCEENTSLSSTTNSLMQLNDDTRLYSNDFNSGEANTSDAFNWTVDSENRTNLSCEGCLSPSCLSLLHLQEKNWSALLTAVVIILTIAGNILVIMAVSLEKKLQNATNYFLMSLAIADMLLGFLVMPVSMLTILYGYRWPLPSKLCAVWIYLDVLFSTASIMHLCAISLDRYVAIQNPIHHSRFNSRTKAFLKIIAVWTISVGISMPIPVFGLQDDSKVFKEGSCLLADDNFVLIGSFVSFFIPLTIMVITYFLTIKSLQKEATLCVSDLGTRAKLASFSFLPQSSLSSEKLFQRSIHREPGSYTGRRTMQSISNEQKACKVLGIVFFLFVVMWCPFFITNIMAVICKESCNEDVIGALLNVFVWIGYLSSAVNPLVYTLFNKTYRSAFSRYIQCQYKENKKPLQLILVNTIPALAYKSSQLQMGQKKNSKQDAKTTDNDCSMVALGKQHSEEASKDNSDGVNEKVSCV

[21] = target: Serotonin (5-Hydroxytryptamine) 5-HT2B (Homo sapiens, UniProt P41595); assay type: binding
[22] = target: Serotonin (5-Hydroxytryptamine) 5-HT3 (Homo sapiens, UniProt P46098); assay type: binding
[23] = target: Transporter, Dopamine (DAT) (Homo sapiens, UniProt Q01959); assay type: binding
[24] = target: Transporter, Norepinephrine (NET) (Homo sapiens, UniProt P23975); assay type: binding
[25] = target: Vasopressin V1A (Homo sapiens, UniProt P37288); assay type: binding
Chain of Vasopressin V1A (P37288 whole entry): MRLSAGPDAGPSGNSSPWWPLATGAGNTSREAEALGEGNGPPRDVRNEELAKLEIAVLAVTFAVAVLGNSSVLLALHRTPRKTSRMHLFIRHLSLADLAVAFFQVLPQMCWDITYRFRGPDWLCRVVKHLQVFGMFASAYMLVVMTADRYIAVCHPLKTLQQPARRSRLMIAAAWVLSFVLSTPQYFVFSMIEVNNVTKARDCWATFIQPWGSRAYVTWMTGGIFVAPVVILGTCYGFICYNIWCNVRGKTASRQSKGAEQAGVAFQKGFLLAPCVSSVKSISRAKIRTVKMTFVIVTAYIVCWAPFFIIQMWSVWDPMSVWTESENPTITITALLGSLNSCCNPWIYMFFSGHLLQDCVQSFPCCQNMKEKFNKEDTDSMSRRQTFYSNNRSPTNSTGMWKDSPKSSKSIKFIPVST

Measured: inhibition at 10 µM

Chain of Peptidase, Angiotensin Converting Enzyme (P12822 34-1310): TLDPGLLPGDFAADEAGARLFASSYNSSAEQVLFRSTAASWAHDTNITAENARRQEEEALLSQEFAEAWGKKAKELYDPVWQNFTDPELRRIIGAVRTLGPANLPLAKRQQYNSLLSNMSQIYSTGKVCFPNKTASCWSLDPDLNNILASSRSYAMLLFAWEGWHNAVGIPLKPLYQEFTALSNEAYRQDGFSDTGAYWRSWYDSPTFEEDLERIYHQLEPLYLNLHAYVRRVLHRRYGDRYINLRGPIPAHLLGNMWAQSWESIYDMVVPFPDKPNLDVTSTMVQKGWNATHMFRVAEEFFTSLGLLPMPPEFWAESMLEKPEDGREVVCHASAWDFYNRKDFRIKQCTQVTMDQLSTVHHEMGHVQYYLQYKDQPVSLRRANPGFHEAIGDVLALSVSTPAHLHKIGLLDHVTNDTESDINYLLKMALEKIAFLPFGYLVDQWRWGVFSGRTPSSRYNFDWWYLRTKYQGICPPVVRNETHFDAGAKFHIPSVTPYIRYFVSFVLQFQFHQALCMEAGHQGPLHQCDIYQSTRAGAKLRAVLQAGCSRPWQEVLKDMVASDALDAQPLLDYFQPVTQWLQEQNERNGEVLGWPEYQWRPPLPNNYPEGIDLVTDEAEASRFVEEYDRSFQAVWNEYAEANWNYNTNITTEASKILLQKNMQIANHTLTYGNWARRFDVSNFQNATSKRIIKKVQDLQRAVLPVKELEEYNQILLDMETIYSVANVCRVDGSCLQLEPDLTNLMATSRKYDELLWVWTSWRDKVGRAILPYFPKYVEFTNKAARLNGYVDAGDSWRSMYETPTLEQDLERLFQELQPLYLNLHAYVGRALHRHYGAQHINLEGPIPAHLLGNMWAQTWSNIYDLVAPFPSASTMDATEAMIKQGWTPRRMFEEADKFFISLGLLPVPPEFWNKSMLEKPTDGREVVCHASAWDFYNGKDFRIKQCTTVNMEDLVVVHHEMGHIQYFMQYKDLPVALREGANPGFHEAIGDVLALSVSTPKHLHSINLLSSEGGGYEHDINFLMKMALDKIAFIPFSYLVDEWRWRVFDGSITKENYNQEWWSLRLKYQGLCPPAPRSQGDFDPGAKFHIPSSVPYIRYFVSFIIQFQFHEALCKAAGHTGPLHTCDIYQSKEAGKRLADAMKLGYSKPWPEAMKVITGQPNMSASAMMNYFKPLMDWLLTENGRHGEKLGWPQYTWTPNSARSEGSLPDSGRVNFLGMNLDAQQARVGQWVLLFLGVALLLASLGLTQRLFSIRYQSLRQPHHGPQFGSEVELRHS

COc1ccc(CN2CCN(CCO)CC2)c(OC)c1OC [CV-8814, 2-(4-(2,3,4-trimethoxybenzyl)piperazin-1-yl)ethan-1-01]
< 50%: all assays above

— patent US20220168431A1, “METHODS OF TREATING CANCER USING TRIMETAZIDINE-BASED COMPOUNDS” (IMBRIA PHARMACEUTICALS, INC., priority 2019, published 2022)
